The text below walks through data of patent publication US6906175B2, “Production of adenine nucleotide translocator (ANT), novel ANT ligands and screening assays therefor” (priority 1998, dated 2005).

Each structure is given as a SMILES string.

For assay [1], the target named is T1, GST-huANT3 recombinantly produced in E. coli (membranes) (Homo sapiens, UniProt P12236).
T1 construct: Gly-Ser-Pro-Gly-Ile-Leu-Met, where “Met” indicates the amino acid encoded by the translation initiation codon of huANT3; made in house; host or cells: E. coli (crude membrane preparation)
T1 sequence (P12236 1-298): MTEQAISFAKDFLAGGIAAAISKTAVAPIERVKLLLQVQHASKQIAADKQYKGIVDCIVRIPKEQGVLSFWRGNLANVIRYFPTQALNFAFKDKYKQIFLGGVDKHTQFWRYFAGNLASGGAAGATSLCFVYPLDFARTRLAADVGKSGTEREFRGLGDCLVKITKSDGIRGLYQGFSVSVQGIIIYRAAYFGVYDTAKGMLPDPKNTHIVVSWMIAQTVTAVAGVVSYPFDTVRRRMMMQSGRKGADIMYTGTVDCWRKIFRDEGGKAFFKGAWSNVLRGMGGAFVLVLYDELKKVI
The assay can be described thus: Saturation binding of [32P]ATP to E. coli membranes, huANT3-producing cells. The following applies: for cpm bound by: huANT3-Producing Cells: 25 μg membrane protein, 2 hr room temperature. As for the experimental part: (§1) Following arabinose induction, transformed or sham transformed (vector only) E coli were collected by centrifugation at 2000 g for 10 min. The bacterial pellets were resuspended in MSB, to which lysozyme (100 μg/ml) was added. After 20 min at room temperature, the lysates were subjected to one freeze-thaw cycle followed by sonication as described above. The resultant membrane preparation was used for binding assays.
(§2) […] The membranes with bound ATP were sedimented by centrifugation at 5000 g for 5 min, and washed once with binding buffer. Membrane pellets were then mixed with 5 ml scintillation cocktail and counted.

In assay [2] the test system is sham transformed E. coli membranes. The experiment in a line: Saturation binding of [32P]ATP to E. coli membranes, sham transformed (vector only) cells. To be noted: 25 μg membrane protein, 2 hr room temperature. As for the experimental part:
as §1, §2

For the next assay, the target named is T2, GST-huANT3 (Homo sapiens, UniProt P12236).
T2 construct: Gly-Ser-Pro-Gly-Ile-Leu-Met, where “Met” indicates the amino acid encoded by the translation initiation codon of huANT3; made in house; host or cells: E. coli (solubilized lysate, captured on agarose-glutathione beads)
T2 sequence (P12236 1-298): T1 sequence (P12236 1-298)
The assay can be described thus: ATP binding to agarose-glutathione beads incubated with solubilized bacterial lysate. As for the experimental part:
Agarose-glutathione beads were incubated with solubilized (using Dnase, Rnase and 0.1% Triton X-100, see Example 1, section D) bacterial lysate (see Example 2), and substituted for the E. coli membranes in binding assays. Best results (i.e., more specific binding) were seen when the beads were preincubated with bovine serum albumin (BSA, 0.1%) Specific ATP binding (1,070 cpm) was also observed in this experiment (compare to nonspecific binding of 279 cpm in the presence of 10 mM non-radiolabeled ATP).

In a further assay the target is T3, Sf9/huANT3 mitochondria (Homo sapiens, UniProt P12236).
T3 construct: expressed in transfected cells; host or cells: Spodoptera frugiperda Sf9 cells infected with recombinant baculovirus; isolated mitochondria
T3 sequence (P12236 1-298): T1 sequence (P12236 1-298)
The assay can be described thus: Homologous competition of [32P]ATP binding to Sf9/huANT3 mitochondria. To be noted: 25 μg mitochondrial protein per assay; FIG. 7. As for the experimental part: To estimate maximal binding and the extent of overexpression of the huANT3, 25 μg of membrane protein was incubated with varying amounts of [^32P]ATP (1-500 μM) in binding buffer (120 mM KCl, 10 mM Tris, 1 mM EDTA, pH 7.4) for 2 hr at room temperature. The membranes with bound ATP were sedimented by centrifugation at 5000 g for 5 min, and washed once with binding buffer. Membrane pellets were then mixed with 5 ml scintillation cocktail and counted.
Sf9 cells expressing huANT3 were grown in spinner flasks. The cells were harvested by centrifugation at 2,000 g for 5 min. The cell pellet was resuspended in MSB and subjected to 3 freeze-thaw cycles. Cell membranes and debris were removed by centrifugation at 600 g for 5 min; mitochondria were collected by centrifuging the supernatant at 20,000 g for 15 min. The mitochondrial pellets were suspended in MSB, and used for binding assays as described above. Homologous competition of [^32P]ATP binding was performed using 25 μg mitochondrial protein per assay.

A short description of assay [3]: Binding of [32P]ATP to Ni-agarose bead material from control (uninfected) Sf9 cells. To be noted: 2 hr. As to the method: (§3) His-tagged huANT3 protein was purified from baculovirus-infected Sf9 solubilized cell lysates using Ni-agarose magnetic beads; Sf9 cells that had not been infected were used as negative controls. The beads were incubated with [^32P]ATP (1 or 100 μM) for 2 hr. The beads were washed and then counted to determine the amount of bound ATP. […] Binding saturation had essentially been achieved with 1 μM ATP.

The target of a further assay is T4, His-tagged huANT3 (Homo sapiens, UniProt P12236).
T4 sequence (P12236 1-298): T1 sequence (P12236 1-298)
The assay can be described thus: Binding of [32P]ATP to purified His-tagged huANT3 on Ni-agarose magnetic beads. The arrangement: made in house; host or cells: baculovirus-infected Sf9 cells. To be noted: for cpm bound by: huANT3-Producing Cells: 2 hr. As for the experimental part:
as §3

With `Nc1ncnc2c1ncn2[C@@H]1O[C@H](COP(=O)(O)OP(=O)(O)OP(=O)(O)O)[C@@H](O)[C@H]1O` [ATP, adenosine triphosphate], the “cpm bound by: huANT3-Producing Cells” value is given as 191 cpm in assay [1] ([ATP] 0.1 uM); 49 cpm in assay [1] ([ATP] 0.5 uM); 325 cpm in assay [1] ([ATP] 1.0 uM); 263 cpm in assay [1] ([ATP] 10 uM); 2,727 cpm in assay [1] ([ATP] 50 uM); 5,772 cpm in assay [1] ([ATP] 100 uM). In addition, the “cpm bound by: huANT3-Producing Cells” value is given as 9,715 cpm in assay [1] ([ATP] 500 uM), 149 cpm on His-tagged huANT3 ([ATP] 1.0 uM) and 160 cpm at His-tagged huANT3 ([ATP] 100 uM). The Kd in assay [1] (from saturation binding data of Table 2, read-out: affinity of the ATP binding) is around 6 µM; at Sf9/huANT3 mitochondria, 13 µM. Also, the “cpm bound by: Sham Transformed Cells” value amounted to 109 cpm in assay [2] ([ATP] 0.1 uM); 95 cpm in assay [2] ([ATP] 0.5 uM); 147 cpm in assay [2] ([ATP] 1.0 uM); 123 cpm in assay [2] ([ATP] 5.0 uM); 214 cpm in assay [2] ([ATP] 10 uM); 549 cpm in assay [2] ([ATP] 50 uM). The “cpm bound by: Sham Transformed Cells” value is recorded as 718 cpm in assay [2] ([ATP] 100 uM) and 2,140 cpm in assay [2] ([ATP] 500 uM). For the same compound, at GST-huANT3 (beads preincubated with BSA 0.1%), the “Specific ATP binding” value was 1,070 cpm. Also, on GST-huANT3 (in the presence of 10 mM non-radiolabeled ATP), the nonspecific binding is recorded as 279 cpm. Further, the “cpm bound by: Control (Uninfected) Cells” value was found to be 43 cpm in assay [3] ([ATP] 1.0 uM) and 30 cpm in assay [3] ([ATP] 100 uM). Also, at His-tagged huANT3, the “ATP concentration at which binding saturation had essentially been achieved” value was 1 µM.
